Source: article PMC3189771, “Structure–Activity Relationship of Halophenols as a New Class of Protein Tyrosine Kinase Inhibitors” (International Journal of Molecular Sciences, 2011)

Assays:
[1] = biological target: protein tyrosine kinase (PTK); experiment: in vitro PTK inhibitory activity by ELISA (brain cytoplasmic tyrosine kinase extract, PGT substrate); assay type: biochemical, mouse; conditions: genistein as positive control; for IC50: determined in triplicate
Procedure: After removal of the male mouse (SD) meninges, the brain was weighted and homogenized with a glass homogenizer in four volumes of cold medium (containing 20 mmol/L Tris–HCl, pH 7.5, 0.25 mol/L sucrose, 2 mmol/L DDT, 2 mmol/L EDTA, 2 mmol/L Na3VO4, 1 mmol/L DMSF, 215 mg/L aprotinin, 1 mg/L PTIFtatin, 5 mg/L leupeptin) at high speed. The mixture was centrifuged for 10 min at 1000 × g at 4 °C; the supernatant was collected and re-centrifuged for 10 min at 10,000 × g at 4 °C to obtain the target supernatant. The target supernatant that contained cytoplasmic tyrosine kinase was collected, separately packed and stored at −70 °C.
PTK activity was determined by the ELISA method. In brief, the concentrations of PTKs used to construct calibration curves were as follows: 600, 500, 341, 200 and 100 × 10^−7 U/mL for PTK. 100 μL of 20 mg/L PGT (Sigma Aldrich) in 20 mmol/L PBS solution was added to 96-well microtiter plates at 37 °C overnight. After removing excess substrate solution, PBS–Tween 20 (PBST) was used to wash the wells one time, which were dried for 2 h at 37 °C and kept at 4 °C. Subsequently, 50 μL of the above PTK extraction (50 mmol/L HEPES, pH 7.4, 20 mmol/L MgCl2, 0.1 mmol/L MnCl2, 0.2 mmol/L Na3VO4, 0.6 mmol/L ATP) was added to the 96-well plates. Then, a certain concentration of the tested compounds (10 μL) and tyrosine kinase tissue extract solution were incubated at 37 °C for 1 h. The plate was washed three times with PBST at the end of the treatment, and 100 μL of the diluted horseradish-peroxidase-labeled mouse anti-phosphotyrosine monoclonal antibody IgG2bk (Sigma Aldrich) was added to each well, and incubated at 37 °C for 30 min. After removal of the antibody complex, and then washing three times with PBST, 100 μL freshly prepared TMB horseradish peroxidase color development solution (Beijing 4A Biotech Co., Ltd, China) was added and protected from light for 10 min. The reaction was terminated by addition of 100 μL/well 1 N sulfuric acid. Absorbance was measured at 450 nm in a microplate reader (SpectraMax M5).

Compound | melting point | IC50 [1] | PTK inhibitory activity (in words) [1]
COc1ccc(C(=O)c2ccccc2F)cc1OC [Compound 1a, 2-fluoro-3′,4′-dimethoxyl benzophenone] | 77 to 79 °C | – | –
O=C(c1ccc(O)c(O)c1)c1ccccc1F [Compound 1c, 2-fluoro-3′,4′-dihydroxyl benzophenone] | 149 to 150 °C | > 50 µM | –
Oc1ccc(Cc2ccccc2F)cc1O [Compound 1d, 2-fluoro-3′,4′-dihydroxyl diphenylmethane] | 91 to 92 °C | > 50 µM | –
COc1ccc(C(=O)c2cccc(F)c2)cc1OC [Compound 2a, 3-fluoro-3′,4′-dimethoxyl benzophenone] | 103 to 105 °C | – | –
O=C(c1cccc(F)c1)c1ccc(O)c(O)c1 [Compound 2c, 3-fluoro-3′,4′-dihydroxyl benzophenone] | 104 to 106 °C | > 50 µM | –
Oc1ccc(Cc2cccc(F)c2)cc1O [Compound 2d, 3-fluoro-3′,4′-dihydroxyl diphenylmethane] | 66 to 68 °C | > 50 µM | –
COc1ccc(C(=O)c2ccc(F)cc2)cc1OC [Compound 3a, 4-fluoro-3′,4′-dimethoxyl benzophenone] | 101 to 103 °C | – | –
O=C(c1ccc(F)cc1)c1ccc(O)c(O)c1 [Compound 3c, 4-fluoro-3′,4′-dihydroxyl benzophenone] | 155 to 157 °C | > 50 µM | –
Oc1ccc(Cc2ccc(F)cc2)cc1O [Compound 3d, 4-fluoro-3′,4′-dihydroxyl diphenylmethane] | 59 to 61 °C | > 50 µM | –
COc1ccc(C(=O)c2ccccc2I)cc1OC [Compound 4a, 2-iodo-3′,4′-dimethoxyl benzophenone] | 143 to 145 °C | – | –
O=C(c1ccc(O)c(O)c1)c1ccccc1I [Compound 4c, 2-iodo-3′,4′-dihydroxyl benzophenone] | 186 to 188 °C | > 50 µM | –
Oc1ccc(Cc2ccccc2I)cc1O [Compound 4d, 2-iodo-3′,4′-dihydroxyl diphenylmethane] | 130 to 132 °C | > 50 µM | –
O=C(c1ccc(O)c(O)c1)c1c(Br)c(O)c(O)c(O)c1Br [Compound 5c] | – | > 50 µM | no activity
Oc1ccc(Cc2c(Br)c(O)c(O)c(O)c2Br)cc1O [Compound 5d] | – | > 50 µM | no activity
O=C(c1ccc(O)c(O)c1)c1c(Cl)c(O)c(O)c(O)c1Cl [Compound 6c] | – | 2.97 µM | stronger activities than that of genistein
Oc1ccc(Cc2c(Cl)c(O)c(O)c(O)c2Cl)cc1O [Compound 6d] | – | 3.96 µM | stronger activities than that of genistein

Compound | melting point | IC50 [1] | PTK inhibitory activity (in words) [1]
O=C(c1ccc(O)c(Br)c1)c1cc(O)c(O)cc1Br [Compound 7c] | – | > 50 µM | no activity
Oc1cc(Br)c(Cc2ccc(O)c(Br)c2)cc1O [Compound 7d] | – | 6.34 µM | stronger activities than that of genistein
O=C(c1ccc(O)c(O)c1)c1ccccc1Cl [Compound 8c] | – | 17.7 µM | –
Oc1ccc(Cc2ccccc2Cl)cc1O [Compound 8d] | – | 14.8 µM | –
O=C(c1cccc(Cl)c1)c1ccc(O)c(O)c1 [Compound 9c] | – | 17.8 µM | –
Oc1ccc(Cc2cccc(Cl)c2)cc1O [Compound 9d] | – | 12.9 µM | stronger activities than that of genistein
O=C(c1ccc(Cl)cc1)c1ccc(O)c(O)c1 [Compound 10c] | – | 41.6 µM | –
Oc1ccc(Cc2ccc(Cl)cc2)cc1O [Compound 10d] | – | 6.97 µM | stronger activities than that of genistein
O=C(c1ccccc1)c1cc(O)c(O)cc1Br [Compound 11c] | – | 16 µM | –
Oc1cc(Br)c(Cc2ccccc2)cc1O [Compound 11d] | – | 6.26 µM | stronger activities than that of genistein
O=C(c1ccccc1)c1cc(O)c(O)c(Br)c1Br [Compound 12c] | – | > 50 µM | –
Oc1cc(Cc2ccccc2)c(Br)c(Br)c1O [Compound 12d] | – | > 50 µM | –
O=C(c1cc(Br)ccc1O)c1cc(O)c(O)cc1Br [Compound 13c] | – | > 50 µM | no activity
Oc1cc(Br)c(Cc2cc(Br)ccc2O)cc1O [Compound 13d] | – | 5.05 µM | stronger activities than that of genistein
O=c1c(-c2ccc(O)cc2)coc2cc(O)cc(O)c12 [Genistein, genistein, reference compound] | – | 13.6 µM | –
